This assay concerns SK-MEL-5 viability, CellTiter-Glo ATP luminescence, 24 h. The experiment in a line: SK-MEL-5 parental cell viability reduction, dose response, orthogonal assay for MITF inhibitor project, CellTiter-Glo luminescence, dry powder, set 8 (AID 651586). A general note: Cellular ATP, detected with luciferase, serves as a proxy for viable cell number.

Molecules are shown by their SMILES. Where “and” joins values, the source holds several entries; their conditions need not be identical. Equal values may be shown once.

Drawing on PubChem BioAssay AID651586 (Broad Institute, 2012), this text covers IC50 for 1 compound.

The IC50 is the concentration that gives 50% inhibition.

For the compound `O=C1C=C(Nc2ccccc2)C(=O)c2ccccc21`, the IC50 is 2.56 µM and 6.21 µM.
